Measured values reported in patent US10584283B2, “Preservative for technical products” (Schülke & Mayr GmbH, priority 2015, dated 2020).

Experiment: Storage stability in polyethylene bottles, Experiment 6 (other alkalizing agents)
Format: physicochemical
Experimental: It was also investigated whether the stabilization achieved according to the invention with the particularly preferred agent MIPA is also achieved with other alkalizing agents.
Samples of the solutions were stored in bottles made of polyethylene at −5° C., 25° C. and 40° C. in order to investigate the stability.

CCCCCCCCCCCCN(CCCN)CCCN [N,N-bis(3-aminopropyl)-dodecylamine]
Storage stability / compatibility (conclusion in words): incompatible with TTT
